Source: publication PMC3983201, “6-Methoxyflavanones as Bitter Taste Receptor Blockers for hTAS2R39” (PLoS ONE, 2014)

Target: T1, hTAS2R14 (Homo sapiens, UniProt Q9NYV8)
T1 construct: first 45 amino acids of rat somatostatin receptor type 3 (sst3 membrane-targeting tag) (N); expressed in transfected cells; host or cells: HEK293 T-Rex Flp-In cells stably expressing Gα16-gust44; induced with doxycycline
T1 sequence (Q9NYV8 1-317): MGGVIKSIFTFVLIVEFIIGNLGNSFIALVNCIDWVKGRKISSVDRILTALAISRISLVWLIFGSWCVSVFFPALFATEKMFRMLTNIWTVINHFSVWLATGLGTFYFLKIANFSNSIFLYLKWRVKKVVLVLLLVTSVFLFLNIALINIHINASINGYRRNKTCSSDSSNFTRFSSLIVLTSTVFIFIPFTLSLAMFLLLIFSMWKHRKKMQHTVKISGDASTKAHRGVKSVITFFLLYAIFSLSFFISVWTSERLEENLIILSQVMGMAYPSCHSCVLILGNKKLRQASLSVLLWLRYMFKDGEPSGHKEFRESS
Assay: Calcium assay of hTAS2R14 activation/inhibition in HEK293 T-Rex Flp-In cells
Assay type: cell-based
Conditions: for IC50, Simultaneous / Threshold, Simultaneous: simultaneous addition, n.b. = no blocking; for IC50 / Threshold, Stepwise: stepwise addition
Source text: For functional expression of the human bitter taste receptor hTAS2R39, HEK293 T-Rex Flp-In cells (Invitrogen, San Diego, CA, USA) were used, stably expressing the chimeric G-protein α-subunit Gα16-gust44 (cloned into pcDNA4 (Invitrogen)) and the human bitter receptor genes for hTAS2R39 (cloned into pcDNA5/FRT (Invitrogen)). The bitter receptor gene contained a DNA sequence encoding the first 45 amino acids of rat somatostatin receptor type 3 at its 5′ end (the receptor expression was achieved according to [18] with exception of the HSV-tag), in order to improve membrane targeting of the receptor protein. The same procedure was applied for stable expression of hTAS2R14. Cells were maintained in Dulbecco's Modified Eagle's Medium (DMEM) and 10% (v/v) tetracycline-free FBS (both Lonza, Verviers, Belgium) supplemented with blasticidin (5 μg/mL), geneticin (400 μg/mL) and hygromycin (100 μg/mL) (all from Invitrogen). Cells were grown and maintained at 37 °C and 5% (v/v) CO2.
Cells were seeded into poly-L-lysine-coated (Sigma-Aldrich) 96-well plates (black wall, clear bottom, Greiner bio-one, Frickenhausen, Germany) at a density of 7*10^3 cells in 100 μL/well and cultured for 24 h. Transcription of the receptors was induced by adding 0.25 μg/mL doxycycline (Sigma-Aldrich). […] One hour after loading, cells were washed with Tyrode's buffer and taken up in Tyrode's buffer. Stock solutions of test compounds were prepared in DMSO and diluted to the appropriate concentration in Tyrode's buffer, not exceeding a DMSO concentration of 1% (v/v).
Two methods of compound administration were applied: simultaneous and stepwise addition of potential antagonist and agonist. The first 17 s before compound addition were used for baseline determination. For the simultaneous method, agonist and potential antagonist were pre-mixed, administered after 17 s, and fluorescence was measured for in total 90 s. For the stepwise method, after 17 s, the potential antagonist was added, fluorescence was measured until 120 s, and after 120 s the agonist was added and measured for another 120 s, in total 240 s. […] Each experiment was performed at least in duplicate in separate experiments (as indicated for each figure).
Data processing was done as reported previously. In brief, SoftMax Pro 5.4 software (Molecular Devices Corporation) was used to plot the fluorescence signals. The fluorescence value (ΔF/F0), representing receptor activity, was calculated by subtracting the baseline fluorescence (F0) prior to loading from the maximum fluorescence (F) after compound addition, divided by the signal of the baseline in order to normalize background fluorescence. Dose-response curves were established as non-linear regression curves using Graph Pad Prism (version 4 for Windows, Graph Pad Software, San Diego, CA, USA). Half-maximal effective concentrations (EC50) and half-maximal inhibitory concentrations (IC50) were calculated. Error bars reflect the standard error of the mean (SEM). Statistical analysis was performed in Graph Pad Prism (one-way ANOVA at 5% risk level, followed by Bonferroni's post hoc test).
Inhibition was indicated when [drawing 1] . In case of indicated inhibition, flavanones were applied at different concentrations, in order to test for dose-dependent inhibition, at the EC80 concentration of the agonist. […] To investigate the specificity of flavanones for inhibition of hTAS2R39 and hTAS2R14, another bitter taste receptor, hTAS2R16 (not known to be activated by flavonoids), was used in inhibition experiments ( File S3 ) towards its agonist salicin.

[1] = inhibition of hTAS2R14 response to 70 μM genistein
[2] = inhibition of hTAS2R14 response to 640 μM ECG

Row | IC50, Simultaneous [1] | Threshold, Simultaneous [1] | IC50 [1] [µM] | Threshold, Stepwise [1] [µM] | inhibition of hTAS2R14 by probenecid in the buffer (0.5 mM probenecid in Tyrode's buffer, agonist equol) | SMILES | blocking of hTAS2R14 (640 μM ECG, simultaneous application) | inhibition of hTAS2R14 (640 μM ECG, stepwise application) | IC50, Simultaneous [2] | Threshold, Simultaneous [2] | IC50 [2] [µM] | Threshold, Stepwise [2] [µM]
1 | n.b. | n.b. | ~500 | 32 |  | COc1ccc2c(c1)C(=O)CC(c1ccc(F)cc1)O2 (stereo not shown) [Compound 6, 4′-Fluoro-6-methoxyflavanone] | no blocking | an inhibitory effect was observed | n.b. | n.b. | 79 ± 25 | <8
2 | n.b. | n.b. | 741 ± 143 | 500 |  | COc1ccc2c(c1)C(=O)CC(c1ccccc1)O2 (stereo not shown) [Compound 11, 6-Methoxyflavanone] |  |  | n.b. | n.b. | 447 ± 123 | 250
3 |  |  |  |  | did not lead to inhibition | CCCN(CCC)S(=O)(=O)c1ccc(C(=O)O)cc1 [probenecid, p-(dipropylsulfamyl)benzoic acid, reference compound] |  |  |  |  |  | 
